# Laboratory results: patent US9278941B2, “Azole derivative and uses thereof” (Kureha Corporation, priority 2011, dated 2016)
# Like-named read-outs stand apart in the source and are kept apart here.
# Key:
# powdery mildew = test: Powdery mildew control effect on wheat, foliar spray treatment; assay type: in vivo; settings: wettable powder foliar spray 1,000 L/ha, seven days after inoculation
# Sclerotinia sclerotiorum = test: Antifungal test for pathogens (PDA plate), S.s; assay type: cell-based; settings: PDA plate medium
# Rhizopus oryzae = test: Antifungal test for pathogens (PDA plate), R.o; assay type: cell-based; settings: PDA plate medium
# wheat leaf blight = test: Leaf blotch control effect on wheat, foliar spray treatment; settings: wettable powder foliar spray 1,000 L/ha, thirty days after inoculation
# Method: After blow drying the sprayed leaves, the plants were sprinkled and inoculated with wheat leaf blight. Thirty days after inoculation, the morbidity of the wheat to powdery mildew was evaluated according to the criteria shown in Table 3, and the preventative value was calculated using the following equation. When the average morbidity of the sprayed plot was higher than the average morbidity of the unsprayed plot, the preventative value was 0%. Preventative value (%)=(1−(average morbidity of the sprayed plot/average morbidity of the unsprayed plot))×100.
# Pyricularia oryzae = assay type: cell-based; settings: PDA plate medium
# Gibberella fujikuroi = test: Antifungal test for pathogens (PDA plate), G.f; assay type: cell-based; settings: PDA plate medium
# wheat leaf rust = test: Rust control effect on wheat, foliar spray treatment; assay type: in vivo; settings: wettable powder foliar spray 1,000 L/ha, twelve days after inoculation
# Rhizoctonia solani = test: Antifungal test for pathogens (PDA plate), R.s; assay type: cell-based; settings: PDA plate medium
# Glomerella cingurata = test: Antifungal test for pathogens (PDA plate), G.c; assay type: cell-based; settings: PDA plate medium
# wheat brown rust = test: Brown rust control effect on wheat, seed treatment; assay type: in vivo; settings: sixteen days after inoculation
# Method: A pot test was performed to evaluate the brown rust controlling effect on wheat using seed treatment. Compound (1(−)) or Compound (1(+)) was dissolved in DMSO so the treatment amount was 20 g ai/100 kg seeds or 2 g ai/100 kg seeds, and the solution was smeared on wheat seeds in a vial, and eight wheat seeds were seeded in a 80 cm^2 pot. These were irrigated from below in a greenhouse. Fifteen days after seeding, the seedlings were inoculated with wheat brown rust and then kept for two days in a box. These were again irrigated from below in a greenhouse.
# wheat = test: Phytotoxicity evaluation of growth inhibition of wheat seeds, seed treatment; assay type: in vivo; settings: fifteen days after seeding, untreated 21 cm
# Method: A pot test was used to perform a phytotoxicity evaluation of growth inhibition using a seed treatment. Compound (1(−)) or Compound (1(+)) was dissolved in DMSO so the treatment amount was 2 or 20 g ai/100 kg seeds, and the solution was smeared on wheat seeds in a vial, and eight wheat seeds were seeded in a 80 cm^2 pot. These were irrigated from below in a greenhouse. Fifteen days after seeding, the length of the wheat was evaluated.
# [1] = test system: Pseudocercoporella herpotrichoides; test: Antifungal test for pathogens (PDA plate), P.h; assay type: cell-based; settings: PDA plate medium
# [2] = test system: various pathogenic filamentous fungi other than wheat leaf blight; assay type: cell-based; settings: 10 mg/L, PDA plate; all 13 fungi: wheat blight, barley stripe, wheat fusarium, barley loose smut, rice blast, rice sheath blight, rice bakanae, apple leaf spot, Botrytis cinerea, cucumber vine crack, citrus blue mold, sugar beet brown spot, barley cloud fungus
# Fusarium oxysporum = test: Antifungal test for pathogens (PDA plate), F.c; assay type: cell-based; settings: PDA plate medium
# Botrytis cinerea [3] = test: Gray mold disease control effect on cucumbers, foliar spray treatment; assay type: in vivo; settings: cucumber gray mold, wettable powder foliar spray 1,000 L/ha, four days after inoculation
# Gaeumannomyces graminis = test: Antifungal test for pathogens (PDA plate), G.g; assay type: cell-based; settings: PDA plate medium
# Cercospora beticola = test: Antifungal test for pathogens (PDA plate), C.b; assay type: cell-based; settings: PDA plate medium
# Ustilago nuda = test: Antifungal test for pathogens (PDA plate), U.n; assay type: cell-based; settings: PDA plate medium
# [4] = test system: Wheat leaf blight (Septoria tritici); test: Antifungal test against wheat leaf blight (PDA plate); settings: 19 days at 25° C.
# Method: Wheat leaf blight (Septoria tritici) cultured beforehand in a medium plate was punched out with a 4 mm-diameter cork borer, and inoculated in the plate media containing the agent. After inoculation, they were cultured for 19 days at 25° C., and the growth of the fungus was determined by the diameter of the growth. The growth rate of the fungus in the plate media containing the agent was compared to the growth rate of the fungus in the plate medium not containing the agent, and the filamentous fungi inhibition rate was determined using the following equation. In the equation, R is the filamentous fungi inhibition rate (%), dc is the diameter of the fungal growth in the untreated plate media, and dt is the diameter of the fungal growth in the treated plate media. R=100(dc−dt)/dc
# Botrytis cinerea [5] = test: Antifungal test for pathogens (PDA plate), B.c; assay type: cell-based; settings: PDA plate medium
# Alternaria alternata = test: Antifungal test for pathogens (PDA plate), A.m; assay type: cell-based; settings: PDA plate medium
# Pyrenophora graminea = test: Antifungal test for pathogens (PDA plate), P.g; assay type: cell-based; settings: PDA plate medium
# Fusarium graminearum = assay type: cell-based; settings: PDA plate medium
# Rhynchosporium secalis = test: Antifungal test for pathogens (PDA plate), R.sec; assay type: cell-based; settings: PDA plate medium
# Penicillium italicum = test: Antifungal test for pathogens (PDA plate), P.i; assay type: cell-based; settings: PDA plate medium
# Microdochium nivale = test: Antifungal test for pathogens (PDA plate), M.n; assay type: cell-based; settings: PDA plate medium
# Phaeosphaeria nodorum = test: Antifungal test for pathogens (PDA plate), P.n; assay type: cell-based; settings: PDA plate medium
smiles,measurement,setting,value
"COC(=O)[C@]1(C)CC[C@H](Cc2ccc(Cl)cc2)[C@@]1(O)Cn1cncn1 (relative stereo) [Compound (1(+)), (1,2-cis, 1,3-cis)-3-(4-chlorobenzyl)-2-hydroxy-1-methyl-2-(1H-1,2,4-triazole-1-ylmethyl)cyclopentanecarboxylic acid methyl ester]",Preventative Value (%),powdery mildew; sample conc. 12.5 mg/L,24%
same,Preventative Value (%),powdery mildew; sample conc. 50.0 mg/L,94%
same,Antifungal Index of Each Strain S.s,Sclerotinia sclerotiorum; Sample Conc. 1.25 mg/L,1 (<60%)
same,Antifungal Index of Each Strain S.s,Sclerotinia sclerotiorum; Sample Conc. 2.5 mg/L,1 (<60%)
same,Antifungal Index of Each Strain S.s,Sclerotinia sclerotiorum; Sample Conc. 5 mg/L,1 (<60%)
same,Antifungal Index of Each Strain R.o,Rhizopus oryzae; Sample Conc. 1.25 mg/L,1 (<60%)
same,Antifungal Index of Each Strain R.o,Rhizopus oryzae; Sample Conc. 2.5 mg/L,1 (<60%)
same,Antifungal Index of Each Strain R.o,Rhizopus oryzae; Sample Conc. 5 mg/L,1 (<60%)
same,Preventative Value (%),wheat leaf blight; sample conc. 12.5 mg/L,67.5%
same,Preventative Value (%),wheat leaf blight; sample conc. 50 mg/L,77.5%
same,Antifungal Index of Each Strain P.o,Pyricularia oryzae; Sample Conc. 1.25 mg/L,1 (<60%)
same,Antifungal Index of Each Strain P.o,Pyricularia oryzae; Sample Conc. 2.5 mg/L,2 (70%-60%)
same,Antifungal Index of Each Strain P.o,Pyricularia oryzae; Sample Conc. 5 mg/L,5 (>90%)
same,Antifungal Index of Each Strain G.f,Gibberella fujikuroi; Sample Conc. 1.25 mg/L,1 (<60%)
same,Antifungal Index of Each Strain G.f,Gibberella fujikuroi; Sample Conc. 2.5 mg/L,2 (70%-60%)
same,Antifungal Index of Each Strain G.f,Gibberella fujikuroi; Sample Conc. 5 mg/L,3 (80%-70%)
same,Preventative Value (%),wheat leaf rust; sample conc. 0.8 mg/L,0%
same,Preventative Value (%),wheat leaf rust; sample conc. 3.1 mg/L,0%
same,Antifungal Index of Each Strain R.s,Rhizoctonia solani; Sample Conc. 1.25 mg/L,2 (70%-60%)
same,Antifungal Index of Each Strain R.s,Rhizoctonia solani; Sample Conc. 2.5 mg/L,2 (70%-60%)
same,Antifungal Index of Each Strain R.s,Rhizoctonia solani; Sample Conc. 5 mg/L,4 (90%-80%)
same,Antifungal Index of Each Strain G.c,Glomerella cingurata; Sample Conc. 1.25 mg/L,1 (<60%)
same,Antifungal Index of Each Strain G.c,Glomerella cingurata; Sample Conc. 2.5 mg/L,1 (<60%)
same,Antifungal Index of Each Strain G.c,Glomerella cingurata; Sample Conc. 5 mg/L,2 (70%-60%)
same,Preventative Value (%),wheat brown rust; seed treatment 2 g ai/100 kg seeds,0%
same,Preventative Value (%),wheat brown rust; seed treatment 20 g ai/100 kg seeds,5%
same,Average Plant Length (cm),wheat; wheat seed treatment 2 g ai/100 kg seeds,22 cm
same,Average Plant Length (cm),wheat; wheat seed treatment 20 g ai/100 kg seeds,14 cm
same,Antifungal Index of Each Strain P.h,[1]; Sample Conc. 1.25 mg/L,1 (<60%)
same,Antifungal Index of Each Strain P.h,[1]; Sample Conc. 2.5 mg/L,1 (<60%)
same,Antifungal Index of Each Strain P.h,[1]; Sample Conc. 5 mg/L,1 (<60%)
same,filamentous fungi inhibition rate R,[2],≥ 80%
same,Antifungal Index of Each Strain F.c,Fusarium oxysporum; Sample Conc. 1.25 mg/L,2 (70%-60%)
same,Antifungal Index of Each Strain F.c,Fusarium oxysporum; Sample Conc. 2.5 mg/L,3 (80%-70%)
same,Antifungal Index of Each Strain F.c,Fusarium oxysporum; Sample Conc. 5 mg/L,4 (90%-80%)
same,Preventative Value (%),Botrytis cinerea [3]; sample conc. 12.5 mg/L,0%
same,Preventative Value (%),Botrytis cinerea [3]; sample conc. 50.0 mg/L,17.6%
same,Antifungal Index of Each Strain G.g,Gaeumannomyces graminis; Sample Conc. 1.25 mg/L,1 (<60%)
same,Antifungal Index of Each Strain G.g,Gaeumannomyces graminis; Sample Conc. 2.5 mg/L,2 (70%-60%)
same,Antifungal Index of Each Strain G.g,Gaeumannomyces graminis; Sample Conc. 5 mg/L,4 (90%-80%)
same,Antifungal Index of Each Strain C.b,Cercospora beticola; Sample Conc. 0.08 mg/L,1 (<60%)
same,Antifungal Index of Each Strain C.b,Cercospora beticola; Sample Conc. 0.16 mg/L,2 (70%-60%)
same,Antifungal Index of Each Strain C.b,Cercospora beticola; Sample Conc. 0.31 mg/L,3 (80%-70%)
same,Antifungal Index of Each Strain C.b,Cercospora beticola; Sample Conc. 0.63 mg/L,4 (90%-80%)
same,Antifungal Index of Each Strain U.n,Ustilago nuda; Sample Conc. 1.25 mg/L,2 (70%-60%)
same,Antifungal Index of Each Strain U.n,Ustilago nuda; Sample Conc. 2.5 mg/L,3 (80%-70%)
same,Antifungal Index of Each Strain U.n,Ustilago nuda; Sample Conc. 5 mg/L,4 (90%-80%)
same,Antifungal Index,[4]; sample conc. 0.31 mg/L,3 (80%-70%)
same,Antifungal Index,[4]; sample conc. 0.63 mg/L,3 (80%-70%)
same,Antifungal Index,[4]; sample conc. 1.25 mg/L,5 (>90%)
same,Antifungal Index of Each Strain B.c,Botrytis cinerea [5]; Sample Conc. 1.25 mg/L,1 (<60%)
same,Antifungal Index of Each Strain B.c,Botrytis cinerea [5]; Sample Conc. 2.5 mg/L,1 (<60%)
same,Antifungal Index of Each Strain B.c,Botrytis cinerea [5]; Sample Conc. 5 mg/L,4 (90%-80%)
same,Antifungal Index of Each Strain A.m,Alternaria alternata; Sample Conc. 1.25 mg/L,1 (<60%)
same,Antifungal Index of Each Strain A.m,Alternaria alternata; Sample Conc. 2.5 mg/L,2 (70%-60%)
same,Antifungal Index of Each Strain A.m,Alternaria alternata; Sample Conc. 5 mg/L,3 (80%-70%)
same,Antifungal Index of Each Strain P.g,Pyrenophora graminea; Sample Conc. 0.08 mg/L,1 (<60%)
same,Antifungal Index of Each Strain P.g,Pyrenophora graminea; Sample Conc. 0.16 mg/L,1 (<60%)
same,Antifungal Index of Each Strain P.g,Pyrenophora graminea; Sample Conc. 0.31 mg/L,4 (90%-80%)
same,Antifungal Index of Each Strain P.g,Pyrenophora graminea; Sample Conc. 0.63 mg/L,5 (>90%)
same,Antifungal Index of Each Strain F.g,Fusarium graminearum; Sample Conc. 1.25 mg/L,1 (<60%)
same,Antifungal Index of Each Strain F.g,Fusarium graminearum; Sample Conc. 2.5 mg/L,1 (<60%)
same,Antifungal Index of Each Strain F.g,Fusarium graminearum; Sample Conc. 5 mg/L,2 (70%-60%)
same,Antifungal Index of Each Strain R.sec,Rhynchosporium secalis; Sample Conc. 0.08 mg/L,3 (80%-70%)
same,Antifungal Index of Each Strain R.sec,Rhynchosporium secalis; Sample Conc. 0.16 mg/L,5 (>90%)
same,Antifungal Index of Each Strain R.sec,Rhynchosporium secalis; Sample Conc. 0.31 mg/L,5 (>90%)
same,Antifungal Index of Each Strain R.sec,Rhynchosporium secalis; Sample Conc. 0.63 mg/L,5 (>90%)
same,Antifungal Index of Each Strain P.i,Penicillium italicum; Sample Conc. 0.08 mg/L,1 (<60%)
same,Antifungal Index of Each Strain P.i,Penicillium italicum; Sample Conc. 0.16 mg/L,1 (<60%)
same,Antifungal Index of Each Strain P.i,Penicillium italicum; Sample Conc. 0.31 mg/L,1 (<60%)
same,Antifungal Index of Each Strain P.i,Penicillium italicum; Sample Conc. 0.63 mg/L,2 (70%-60%)
same,Antifungal Index of Each Strain M.n,Microdochium nivale; Sample Conc. 1.25 mg/L,1 (<60%)
same,Antifungal Index of Each Strain M.n,Microdochium nivale; Sample Conc. 2.5 mg/L,1 (<60%)
same,Antifungal Index of Each Strain M.n,Microdochium nivale; Sample Conc. 5 mg/L,1 (<60%)
same,Antifungal Index of Each Strain P.n,Phaeosphaeria nodorum; Sample Conc. 1.25 mg/L,2 (70%-60%)
same,Antifungal Index of Each Strain P.n,Phaeosphaeria nodorum; Sample Conc. 2.5 mg/L,2 (70%-60%)
same,Antifungal Index of Each Strain P.n,Phaeosphaeria nodorum; Sample Conc. 5 mg/L,2 (70%-60%)
